Data as given in patent US20180289655A1, “Methods and Compositions for the Intravenous Administration of Fumarates for the Treatment of Neurological Diseases” (Biogen MA Inc., priority 2015, published 2018).
“Also recorded” adds a separate entry of the source. Counter-ions that a name gives are not always drawn.

Experiments:
[1] = Solution stability of DMF in aqueous solution (HPLC); format: physicochemical; set-up: DMF assay: unit not given here
Description: Solution stability studies were conducted using 0.2 mg/ml concentration solutions, which were achieved by mixing equal volumes of the stock solution and individual study media. […] Samples stored at 37° C. or ambient temperature were pulled at predetermined time points, and analyzed by HPLC.

[2] = MMF exposure in plasma and tissues after DMF PO/IV or MMF IV (LC-MS/MS); format: in vivo, C57BL/6 mice
Description: Aliquots (25 μL) of either plasma or tissue homogenate samples were extracted by protein precipitation with acetonitrile containing 4C13-MMF as the internal standard. For tissue samples, aliquots of homogenization solution (plasma with 12.5 mg/mL of NaF) were added to the tissue samples. The tissue samples were homogenized at 6.5 m/s for 60 seconds on a Fast Prep Tissue Homogenizer prior to protein precipitation. Concentrations of MMF in plasma, brain, jejunum and kidney samples were determined using qualified LC-MS/MS assays in the respective matrices. Data collections and integrations were accomplished using an API 5500 triple quadrupole mass spectrometer with a turbo ion spray interface (AB Sciex, Foster City, Calif.), and Analyst software (version 1.6.1). The peak area ratios of MMF relative to its internal standard were used to construct a standard curve using a quadratic regression with a 1/x^2 weighting. The lower limits of quantitation (LLOQ) were 1 ng/mL for the three tissue assays and 10 ng/mL for the plasma assay, respectively. The performances of the assays were monitored by the precision and accuracy of the standards and quality control samples.
MMF exposure levels were evaluated 10 minutes and 2 hours after dosing, while pharmacodynamic transcriptional responses were analyzed at 2 hours post-dose.
At the 10-minute time point, 4 animals from each group were sacrificed, with plasma and tissues (brain, jejunum and kidney) collected to determine MMF exposure. Two hours after dosing, the remaining 4 animals were sacrificed, and plasma and tissues were collected. Tissue samples from the 2-hour time point were divided, with half of each sample used for MMF exposure analysis, and half for RNA extraction and qRT-PCR to evaluate the expression of Nrf2 target genes.
MMF exposure levels were evaluated 10 minutes and 2 hours after dosing, while transcriptional pharmacodynamic responses were analyzed at 2 and 6 hours post-dose. A complete blood count (CBC) with differential panel was performed at 10 minutes, 2 hours, and 6 hours post-dose.
Ten minutes after dosing, 4 animals from each group were sacrificed, and plasma and tissues (brain, kidney, jejunum and spleen) were collected to quantify MMF exposure levels, as well as whole blood to perform CBC. Two hours post-dose, another 4 animals from each group were sacrificed, and plasma, whole blood, and tissues were collected. Tissue samples from the 2-hour time point were split, with half of each sample used for MMF exposure analysis, and half for RNA extraction/qRT-PCR to evaluate the expression of Nrf2 target genes. Six hours after dosing, the last 4 animals from each group were sacrificed, and whole blood and tissues were collected.

[3] = Tail histopathology for DMF IV multi-dose tolerability; format: in vivo, C57BL/6 mice; conditions: Study 3, DMF IV 30 mg/kg once a day for 5 consecutive days
Description: Tissue samples were preserved in 10% neutral buffered formalin (NBF) and then transferred to the Translational Pathology Laboratory for processing into paraffin blocks, slide preparation, and hematoxylin and eosin staining. Histopathology evaluation of the stained slides was performed by the Biogen Idec Comparative Pathology department (data not provided herein).
A CBC with differential panel was performed at 10 minutes post-last dose via facial vein bleeding, and at 2 hours after the last dose, pharmacodynamic Nrf2 transcriptional responses were analyzed in tissues from the same animals. Histopathology was also performed on regions of the tail in a pilot toxicology study.

[4] = 24-hour equilibrium solubility of DMF in water; format: physicochemical; conditions: thermodynamic from solid
Description: Samples were then filtrated at the measuring temperatures through a 0.2 μm filter unit, and the concentrations of the filtrate were determined using HPLC. The solids in equilibrium were confirmed, by FT-Raman technique, to be the same form as the starting material.

[5] = Solubility of DMF in 20% Captisol; format: physicochemical; conditions: aqueous with cosolvent or surfactant or cyclodextrin, thermodynamic from solid, room temperature (heated at 50° C., cooled, filtered)
Description: The preparations were heated at 50° C. for 5-10 min, followed by cooled to room temperature.

[6] = SGF (without pepsin), 0.2 mg/ml, initial
[7] = SGF (without pepsin), 37° C., 24 hr
[8] = SGF (without pepsin), ambient temperature, 24 hr
[9] = SGF (without pepsin), ambient temperature, 48 hr
[10] = SGF (without pepsin), ambient temperature, 72 hr
[11] = SIF (without pancreatin), 0.2 mg/ml, initial
[12] = SIF (without pancreatin), 37° C., 24 hr
[13] = SIF (without pancreatin), ambient temperature, 24 hr
[14] = SIF (without pancreatin), ambient temperature, 48 hr
[15] = SIF (without pancreatin), ambient temperature, 72 hr
[16] = Water, ambient temperature, 24 hr
[17] = Water, ambient temperature, 48 hr
[18] = Water, ambient temperature, 72 hr
[19] = pH 2 Citrate Buffer, 0.2 mg/ml, initial
[20] = pH 2 Citrate Buffer, 37° C., 24 hr
[21] = pH 2 Citrate Buffer, ambient temperature, 24 hr
[22] = pH 2 Citrate Buffer, ambient temperature, 48 hr
[23] = pH 2 Citrate Buffer, ambient temperature, 72 hr
[24] = pH 4 Citrate Buffer, 0.2 mg/ml, initial
[25] = pH 4 Citrate Buffer, 37° C., 24 hr
[26] = pH 4 Citrate Buffer, ambient temperature, 24 hr
[27] = pH 4 Citrate Buffer, ambient temperature, 48 hr
[28] = pH 4 Citrate Buffer, ambient temperature, 72 hr
[29] = pH 6 Citrate Buffer, 0.2 mg/ml, initial
[30] = pH 6 Citrate Buffer, 37° C., 24 hr
[31] = pH 6 Citrate Buffer, ambient temperature, 24 hr
[32] = pH 6 Citrate Buffer, ambient temperature, 48 hr
[33] = pH 6 Citrate Buffer, ambient temperature, 72 hr
[34] = pH 8 Borate Buffer, 0.2 mg/ml, initial
[35] = pH 8 Borate Buffer, 37° C., 24 hr
[36] = pH 8 Borate Buffer, ambient temperature, 24 hr
[37] = pH 10 Borate Buffer, 0.2 mg/ml, initial
[38] = pH 10 Borate Buffer, 37° C., 24 hr
[39] = pH 10 Borate Buffer, ambient temperature, 24 hr

## COC(=O)/C=C/C(=O)OC [DMF, dimethyl fumarate]
[1]; 37° C., aqueous media
  Stability of DMF in solution at higher pH: decreased rapidly as the solution pH went above 7
  pH of maximum stability of DMF in solution: ~4
[1]; [6]
  DMF area %: 99.3 area %
  DMF assay: 102.9
[1]; [7]
  DMF area %: 92.2 area %
  DMF assay: 91.1
[1]; [8]
  DMF area %: 96.6 area %
  DMF assay: (95.2)
[1]; [9]
  DMF area %: 95.6 area %
  DMF assay: (92.5)
[1]; [10]
  DMF area %: 95.4 area %
  DMF assay: (91.6)
[1]; [11]
  DMF area %: 99.3 area %
  DMF assay: 100.9
[1]; [12]
  DMF area %: 29.5 area %
  DMF assay: 27.8
[1]; [13]
  DMF area %: 68.7 area %
  DMF assay: (68.3)
[1]; [14]
  DMF area %: 64.5 area %
  DMF assay: (60.3)
[1]; [15]
  DMF area %: 62.2 area %
  DMF assay: (59.0)
[1]; Water, 0.2 mg/ml, initial
  DMF area %: 96.6 area %
  DMF assay: 98.9
[1]; Water, 37° C., 24 hr
  DMF area %: 77.4 area %
  DMF assay: 73.9
[1]; [16]
  DMF area %: 84.8 area %
  DMF assay: (81.6)
[1]; [17]
  DMF area %: 85.1 area %
  DMF assay: (80.2)
[1]; [18]
  DMF area %: 83.5 area %
  DMF assay: (79.3)
[1]; [19]
  DMF area %: 99.5 area %
  DMF assay: 101.0
[1]; [20]
  DMF area %: 97.9 area %
  DMF assay: 96.0
[1]; [21]
  DMF area %: 99.1 area %
  DMF assay: (94.7)
[1]; [22]
  DMF area %: 98.9 area %
  DMF assay: (93.2)
[1]; [23]
  DMF area %: 98.7 area %
  DMF assay: (92.0)
[1]; [24]
  DMF area %: 99.8 area %
  DMF assay: 101.9
[1]; [25]
  DMF area %: 99.6 area %
  DMF assay: 100.4
[1]; [26]
  DMF area %: 99.6 area %
  DMF assay: (97.2)
[1]; [27]
  DMF area %: 99.2 area %
  DMF assay: (98.5)
[1]; [28]
  DMF area %: 99.6 area %
  DMF assay: (93.9)
[1]; [29]
  DMF area %: 100 area %
  DMF assay: 101.4
[1]; [30]
  DMF area %: 92.6 area %
  DMF assay: 91.8
[1]; [31]
  DMF area %: 97.5 area %
  DMF assay: (90.7)
[1]; [32]
  DMF area %: 95.3 area %
  DMF assay: (92.5)
[1]; [33]
  DMF area %: 96.1 area %
  DMF assay: (88.4)
[1]; [34]
  DMF area %: 98.6 area %
  DMF assay: 101.0
[1]; [35]
  DMF area %: 17.2 area %
  DMF assay: 15.9
[1]; [36]
  DMF area %: 46.5 area %
  DMF assay: (44.8)
[1]; [37]
  DMF area %: 37.1 area %
  DMF assay: 36.1
[1]; [38]
  DMF area %: 0/0 area %
  DMF assay: 0/0
[1]; [39]
  DMF area %: 0/0 area %
  DMF assay: 0/0
[1]; pH 10 borate buffer solution
  Degradation of DMF before initial HPLC determination: more than half of DMF degraded before an initial concentration was able to be determined
[2]; Study 1, IV DMF, 2 hours
  MMF level in plasma: no detectable MMF in plasma
[2]; Study 1, PO or IV DMF, 2 hours
  MMF level in any tissue: no detectable MMF in any tissue
[2]; Study 2, 2 hours, DMF 30 mg/kg or MMF 27.08 mg/kg IV
  MMF level in plasma or any tissues: no detectable MMF in plasma or in any tissues
[2]; Study 2, IV, 10 minutes
  MMF levels in kidney, jejunum and spleen, DMF versus MMF: no significant differences were noted in MMF levels
[3]
  Tail histology near the injection site: changes similar to that which was observed in vehicle control mice; also recorded: did not reveal any treatment-related findings
[4]; 20 ° C., 24 hours
  solubility at 24 h: 2.7 mg/mL
[4]; 35 ° C., 24 hours
  solubility at 24 h: 3.5 mg/mL
[4]; 50 ° C., 24 hours
  solubility at 24 h: 5.5 mg/mL
[4]; ambient temperature
  solubility at 24 h: 2.7 mg/mL
[5]
  solubility: 4.11 mg/mL
